Source: patent US20250066351A1, “PYRAZOLO[1,5-A]PYRIDIN-2,3-YL AMIDES AS KV7 CHANNEL ACTIVATORS” (Biohaven Therapeutics Ltd., priority 2022, published 2025)

Each compound was assayed against T1, hKv7.2/7.3 (Homo sapiens, UniProt O43525+O43526) (assay: Kv7.2/7.3 Activation Assay, QPatch planar patch-clamp single concentration screen). Details: increase in current over baseline, Kv7.2/Kv7.3 co-expressing HEK cells, compound concentration 3 μM, steady-state current at end of 2 s pulse to −30 mV.
T1 construct: host or cells: HEK cells, tetracycline-inducible expression
Type: cell-based
Procedure: The ability of compounds to potentiate K-currents in Kv7.2/7.3 containing HEK cells was assessed using planar patch-clamp on the QPatch automated screening platform.
Cell Line: The hKv7.2/7.3 cell line was obtained from Chantest (Cleveland, OH 44128) cat. #CT6147. These HEK cells will express the Kv7.2/7.3 ion channels when induced.
Cell Culture: Cells were maintained in a media containing DMEM/F12; 50/50 (GIBCO cat. #11330), 10% Fetal Bovine Serum (FBS) (GIBCO cat. #26140), 100 units/mL Penicillin-Streptomycin (GIBCO cat. #15140), 0.005 mg/mL Blasticidin (INVIVOGEN cat. #ant-bl-1), 0.5 mg/mL Geneticin (GIBCO cat. #10131), 0.1 mg/mL Zeocin (GIBCO cat. #R25001). Cells used in the electrophysiology assay were maintained in a media without Blasticidin, Geneticin and Zeocin for 2 days and channel expression was induced by adding tetracycline (BIOLINE cat. #BIO-87030) at a final concentration of […]. Cells were grown in T-175 flask to ˜75% confluency. Currents were recorded 24 hours after channel induction.
Compound Plates: Test compounds were prepared by performing serial dilutions on a Biomek NX^P (BECKMAN COULTER). Final dilutions were made in external recording solution with a final DMSO concentration of 0.1% DMSO. For single concentration screens each plate had 10 μM retigabine as a positive control and 0.1% DMSO as a negative control.
Electrophysiology: On the day of the experiment cells were washed with Hank's Balanced Salt Solution (HBBS) (GIBCO cat. #14175) and harvested with Tryple (GIBCO cat. #12604). Cells were then centrifuged at 2000 rpm for 5 minutes and resuspended in CHO—S-SFM (GIBCO cat. #12052) at […]. Cells were stirred for 30 minutes before experiments were started. External recording solution contained (in mM): NaCl (145), KCl (4), CaCl2 (2), MgCl2 (1), HEPES (10) and Glucose (10); pH was adjusted to 7.4 with NaOH and the osmolarity was adjusted to 300-305 mOsM with sucrose if necessary. Internal solution contained (in mM): KCl (125), KF (10), EGTA (5), Na2ATP (5), MgCl2 (3.2), HEPES (5); pH was adjusted to 7.2 with KOH and the osmolarity was adjusted to 298-302 mOsM with sucrose.
Potassium channel activity was measured on the QPatch HTX (Sophion Bioscience) using QPlates with 48-wells/plate. Each cell was taken as an independent experiment and only one compound was tested per well. Potassium channel activity was elicited by holding at −80 mV and stepping to −30 mV for 2 s followed by a 100 ms pulse to −120 mV.
Single concentration screen: Baseline conditions were obtained by recording 5 sweeps in the external solution only, this was repeated for three applications of the external solution. The effect of test compounds on elicited current was then assessed by recording 5 sweeps in the presence of a 3 μM compound solution. The steady-state current at the end of the 2 s pulse to −30 mV was measured to determine the fold increase from baseline.

| Compound | QPatch Kv7.2/7.3 Activity |
| --- | --- |
| C[C@@](O)(CC(=O)Nc1nn2ccc(C(F)(F)F)cc2c1-c1ccc(F)cc1)c1ccccn1 [Example 37, (R)-N-(3-(4-fluorophenyl)-5-(trifluoromethyl)pyrazolo [1,5-a]pyridin-2-yl)-3-hydroxy-3-(pyridin-2-yl)butanamide] | ++ (4.0-5.99 (++)) |
| C[C@@](O)(CC(=O)Nc1nn2ccc(C(F)(F)F)cc2c1-c1ccccc1)c1ccccn1 [Example 38, (R)-3-hydroxy-N-(3-phenyl-5-(trifluoromethyl)pyrazolo [1,5-a]pyridin-2-yl)-3-(pyridin-2-yl)butanamide] | ++ (4.0-5.99 (++)) |
| C[C@@](O)(CC(=O)Nc1nn2ccc(C(F)(F)F)cc2c1-c1cccc(F)c1)c1ccccn1 [Example 39, (R)-N-(3-(3-fluorophenyl)-5-(trifluoromethyl)pyrazolo [1,5-a]pyridin-2-yl)-3-hydroxy-3-(pyridin-2-yl)butanamide] | + (2.0-3.99 (+)) |
| Cc1ccc(-c2c(NC(=O)C[C@@](C)(O)c3ccccn3)nn3ccc(C(F)(F)F)cc23)cc1 [Example 40, (R)-3-hydroxy-3-(pyridin-2-yl)-N-(3-(p-tolyl)-5-(trifluoromethyl)pyrazolo[1,5-a]pyridin-2-yl)butanamide] | + (2.0-3.99 (+)) |
| C[C@](O)(CC(=O)Nc1nn2ccc(C(F)(F)F)cc2c1-c1ccc(F)cc1)c1ccccn1 [Example 42, (S)-N-(3-(4-fluorophenyl)-5-(trifluoromethyl)pyrazolo [1,5-a]pyridin-2-yl)-3-hydroxy-3-(pyridin-2-yl)butanamide] | + (2.0-3.99 (+)) |
| CC(C)(O)CC(=O)Nc1nn2ccc(C(F)(F)F)cc2c1-c1ccccc1F [Example 46, N-(3-(2-fluorophenyl)-5-(trifluoromethyl)pyrazolo [1,5-a]pyridin-2-yl)-3-hydroxy-3-methylbutanamide] | +/− (1.2-1.99-fold (+/−)) |
| Cc1cccc(-c2c(NC(=O)CC(C)(C)O)nn3ccc(C(F)(F)F)cc23)c1 [Example 47, 3-hydroxy-3-methyl-N-(3-(m-tolyl)-5-(trifluoromethyl)pyrazolo [1,5-a]pyridin-2-yl)butanamide] | + (2.0-3.99 (+)) |
| CC(C)(O)CC(=O)Nc1nn2ccc(C(F)(F)F)cc2c1-c1ccc(OC(F)(F)F)cc1 [Example 49, 3-hydroxy-3-methyl-N-(3-(4-(trifluoromethoxy)phenyl)-5-(trifluoromethyl)pyrazolo [1,5-a]pyridin-2-yl)butanamide] | + (2.0-3.99 (+)) |
| CC(C)(O)CC(=O)Nc1nn2ccc(C(F)(F)F)cc2c1-c1ccc(C(F)(F)F)cc1 [Example 50, 3-hydroxy-3-methyl-N-(5-(trifluoromethyl)-3-(4-(trifluoromethyl)phenyl)pyrazolo [1,5-a]pyridin-2-yl)butanamide] | + (2.0-3.99 (+)) |
| CC(C)(O)CC(=O)Nc1nn2ccc(C(F)(F)F)cc2c1-c1cc(F)cc(F)c1 [Example 56, N-(3-(3,5-difluorophenyl)-5-(trifluoromethyl)pyrazolo [1,5-a]pyridin-2-yl)-3-hydroxy-3-methylbutanamide] | + (2.0-3.99 (+)) |
| CC(C)(C)CC(=O)Nc1nn2ccc(C#N)cc2c1-c1ccc(F)cc1 [Example 59, N-(5-cyano-3-(4-fluorophenyl)pyrazolo [1,5-a]pyridin-2-yl)-3,3-dimethylbutanamide] | + (2.0-3.99 (+)) |

Results, then the compound that gave them:

| QPatch Kv7.2/7.3 Activity | Compound |
| --- | --- |
| + (2.0-3.99 (+)) | C[C@@](O)(CC(=O)Nc1nn2ccc(C(F)(F)F)cc2c1C1CCC1)c1ccccn1 [Example 35, (R)-N-(3-cyclobutyl-5-(trifluoromethyl)pyrazolo [1,5-a]pyridin-2-yl)-3-hydroxy-3-(pyridin-2-yl)butanamide] |
| + (2.0-3.99 (+)) | C[C@@](O)(CC(=O)Nc1nn2ccc(C#N)cc2c1C1CCC1)c1ccccn1 [Example 36, (R)-N-(5-cyano-3-cyclobutylpyrazolo[1,5-a]pyridin-2-yl)-3-hydroxy-3-(pyridin-2-yl)butanamide] |
| ++ (4.0-5.99 (++)) | C[C@](O)(CC(=O)Nc1nn2ccc(C(F)(F)F)cc2c1C1CCC1)c1ccccn1 [Example 41, (S)-N-(3-cyclobutyl-5-(trifluoromethyl)pyrazolo [1,5-a]pyridin-2-yl)-3-hydroxy-3-(pyridin-2-yl)butanamide] |
| + (2.0-3.99 (+)) | C[C@](O)(CC(=O)Nc1nn2ccc(C#N)cc2c1C1CCC1)c1ccccn1 [Example 43, (S)-N-(5-cyano-3-cyclobutylpyrazolo[1,5-a]pyridin-2-yl)-3-hydroxy-3-(pyridin-2-yl)butanamide] |
| + (2.0-3.99 (+)) | CC(C)(O)CC(=O)Nc1nn2ccc(C(F)(F)F)cc2c1-c1ccc(Cl)s1 [Example 44, N-(3-(5-chlorothiophen-2-yl)-5-(trifluoromethyl)pyrazolo [1,5-a]pyridin-2-yl)-3-hydroxy-3-methylbutanamide] |
| +/− (1.2-1.99-fold (+/−)) | CC(C)(O)CC(=O)Nc1nn2ccc(C(F)(F)F)cc2c1-c1ccc(Cl)nc1 [Example 45, N-(3-(6-chloropyridin-3-yl)-5-(trifluoromethyl)pyrazolo [1,5-a]pyridin-2-yl)-3-hydroxy-3-methylbutanamide] |
| + (2.0-3.99 (+)) | CC(C)(O)CC(=O)Nc1nn2ccc(C(F)(F)F)cc2c1-c1cccc(Cl)c1 [Example 48, N-(3-(3-chlorophenyl)-5-(trifluoromethyl)pyrazolo [1,5-a]pyridin-2-yl)-3-hydroxy-3-methylbutanamide] |
| +/− (1.2-1.99-fold (+/−)) | Cc1ccccc1-c1c(NC(=O)CC(C)(C)O)nn2ccc(C(F)(F)F)cc12 [Example 51, 3-hydroxy-3-methyl-N-(3-(o-tolyl)-5-(trifluoromethyl)pyrazolo [1,5-a]pyridin-2-yl)butanamide] |
| − (<1.2-fold (−)) | Cn1cc(-c2c(NC(=O)CC(C)(C)O)nn3ccc(C(F)(F)F)cc23)cn1 [Example 52, 3-hydroxy-3-methyl-N-(3-(1-methyl-1H-pyrazol-4-yl)-5-(trifluoromethyl)pyrazolo [1,5-a]pyridin-2-yl)butanamide] |
| + (2.0-3.99 (+)) | CC(C)(O)CC(=O)Nc1nn2ccc(Cl)cc2c1C1CCC1 [Example 53, N-(5-chloro-3-cyclobutylpyrazolo[1,5-a]pyridin-2-yl)-3-hydroxy-3-methylbutanamide] |
| − (<1.2-fold (−)) | Cn1cc(-c2c(NC(=O)CC(C)(C)O)nn3ccc(C(F)(F)F)cc23)nn1 [Example 54, 3-hydroxy-3-methyl-N-(3-(1-methyl-1H-1,2,3-triazol-4-yl)-5-(trifluoromethyl)pyrazolo [1,5-a]pyridin-2-yl)butanamide] |
| + (2.0-3.99 (+)) | CC(C)(O)CC(=O)Nc1nn2ccc(C(F)(F)F)cc2c1-c1ccc(F)c(F)c1 [Example 55, N-(3-(3,4-difluorophenyl)-5-(trifluoromethyl)pyrazolo [1,5-a]pyridin-2-yl)-3-hydroxy-3-methylbutanamide] |
| + (2.0-3.99 (+)) | CC(C)(O)CC(=O)Nc1nn2ccc(Cl)cc2c1-c1ccc(F)cc1 [Example 58, N-(5-chloro-3-(4-fluorophenyl)pyrazolo [1,5-a]pyridin-2-yl)-3-hydroxy-3-methylbutanamide] |
| ++ (4.0-5.99 (++)) | CC(C)(C)CC(=O)Nc1nn2cccc(F)c2c1C1CCC1 [Example 60, N-(3-cyclobutyl-4-fluoropyrazolo [1,5-a]pyridin-2-yl)-3,3-dimethylbutanamide] |
| +/− (1.2-1.99-fold (+/−)) | CC(C)(O)CC(=O)Nc1nn2cccc(F)c2c1C1CCC1 [Example 61, N-(3-cyclobutyl-4-fluoropyrazolo[1,5-a]pyridin-2-yl)-3-hydroxy-3-methylbutanamide] |
